From patent US8846710B2, “Method of preferentially inducing the biosynthesis of interferon” (3M Innovative Properties Company, priority 2005, dated 2014)

Legend:
interferon (α) (IFN-α) = test: Cytokine induction in human cells: IFN-α secreted by PBMC into culture media (ELISA); type: cell-based; settings: for minimal effective concentration / Maximal Response IFN / Minimum Effective Concentration IFN: human PBMC; for minimal effective concentration: lowest tested concentration inducing IFN-α over usually 20 pg/mL, median where more than one experiment, read-out: Minimum Effective Concentration (μM) IFN; for Maximal Response (pg/mL) IFN: maximal response in dose response curve, median; for Maximal Response IFN / Minimum Effective Concentration IFN: median where tested in more than one experiment
Outline: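 Human donor PBMC, 2×10^6 cells/mL final in RPMI complete, treated 18–24 h at 37 °C, 5% CO2 with 3-fold dilutions (usually 30-0.014 μM), DMSO ≤1%. Supernatant IFN-α by multi-subtype sandwich ELISA, background-subtracted and reference-adjusted; minimum effective concentration = lowest concentration exceeding usually 20 pg/mL.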

[1] = test system: tumor necrosis factor (α) (TNF-α); test: Cytokine induction in human cells: TNF-α secreted by PBMC into culture media (ORIGEN M-Series immunoassay); type: cell-based; design: key to Maximal Response (pg/mL) TNF / Maximal Response TNF: If any negative values result from background subtraction, the reading is reported as “*”, and is noted as not reliably detectable; settings: for minimal effective concentration / Maximal Response TNF / Minimum Effective Concentration TNF: human PBMC; for minimal effective concentration: lowest tested concentration inducing TNF-α over usually 40 pg/mL, median where more than one experiment, read-out: Minimum Effective Concentration (μM) TNF; for Maximal Response (pg/mL) TNF: maximal response in dose response curve; for Maximal Response (pg/mL) TNF / Maximal Response TNF: median; for Minimum Effective Concentration TNF: median where tested in more than one experiment
Outline: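 Human donor PBMC (final 2×10^6 cells/mL) were incubated 18 to 24 hours at 37° C with compound, usually 30-0.014 μM in 3-fold steps, ≤1% DMSO. Supernatant TNF-α was measured by ORIGEN immunoassay, background-subtracted and reference-adjusted; minimum effective concentration was the lowest concentration exceeding a fixed cytokine threshold.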

[2] = Table 10, * = below experimental background level
[3] = Table 12, * = below the experimental background of 40 pg/mL
[4] = Table 11, * = TNF below experimental background of 40 pg/mL
[5] = Table 7, background-subtracted, reference-adjusted
[6] = Table 9, background-subtracted, reference-adjusted

Row | SMILES | Maximal Response IFN (interferon (α) (IFN-α); Table 11) [pg/mL] | Minimum Effective Concentration IFN (interferon (α) (IFN-α); Table 11) [µM] | Minimum Effective Concentration TNF ([1]; Table 11) [µM] | Maximal Response TNF [1, 4] | other results
1 | CCOCc1nc2c(N)nc3cc(-c4cccnc4)ccc3c2n1CCCCNC(=O)NC1CCCC1 [Analog 33] | – | – | – | – | minimal effective concentration (interferon (α) (IFN-α); Table 10): 0.014 µM; Maximal Response (pg/mL) IFN (interferon (α) (IFN-α); [2]): 925 pg/mL; minimal effective concentration ([1]; Table 10): 1.11 µM; Maximal Response (pg/mL) TNF [1, 2]: 1618 pg/mL
2 | CC(C)Cn1c(CO)nc2c(N)nc3cccnc3c21 [Example 633, [4-Amino-1-(2-methylpropyl)-1H-imidazo[4,5-c][1,5]naphthyridin-2-yl]methanol] | – | – | – | – | Maximal Response IFN (interferon (α) (IFN-α); Table 12): 1592 pg/mL; Maximal Response TNF [1, 3]: 363 pg/mL
3 | Nc1nc2ccccc2c2c1nc(CCO)n2CCCCNC(=O)c1nccc2ccccc12 [Example 111] | 7753 | 0.12 | 1.11 | 983 pg/mL | –
4 | COCc1nc2c(N)nc3ccccc3c2n1CC(C)(C)NS(C)(=O)=O [Analog 47] | 1638 | 0.37 | 3.33 | 7151 pg/mL | –
5 | CS(=O)(=O)CCCCCn1c(CCO)nc2c(N)nc3ccccc3c21 [Example 125] | 8361 | 0.37 | >30 | * | –
6 | CC(C)C(=O)NCCCCn1c(CO)nc2c(N)nc3cc(-c4cccnc4)ccc3c21 [Example 199] | – | – | – | – | Maximal Response (pg/mL) IFN (interferon (α) (IFN-α); [2]): 5880 pg/mL; Maximal Response (pg/mL) TNF [1, 2]: 217 pg/mL
7 | CCc1nc2c(N)nc3ccccc3c2n1CCCNS(C)(=O)=O [Analog 59] | 1912 | 1.11 | 30 | 238 pg/mL | –
8 | CCOCc1nc2c(N)nc3ccccc3c2n1CC(C)(C)NC(=O)C1CCCCC1 [Analog 93] | 1052 | 0.37 | 0.37 | 12173 pg/mL | –
9 | COCCc1nc2c(N)nc3ccccc3c2n1CCCNS(C)(=O)=O [Analog 62] | 3995 | 0.014 | 1.11 | 954 pg/mL | –
10 | COCOCc1nc2c(N)nc3ccccc3c2n1CC(C)(C)CNC(=O)c1ccccc1 [Analog 95] | 832 | 0.04 | 0.37 | 1820 pg/mL | –
11 | CC(C)(Cn1c(CCO)nc2c(N)nc3ccccc3c21)NS(C)(=O)=O [Example 6, N-{2-[4-Amino-2-(2-hydroxyethyl)-1H-imidazo[4,5-c]quinolin-1-yl]-1,1-dimethylethyl}methanesulfonamide] | 6527 | – | – | * | Maximal Response (pg/mL) IFN (interferon (α) (IFN-α); [5]): 7521 pg/mL
12 | CCCc1nc2c(N)nc3ccccc3c2n1CC(C)(C)NS(C)(=O)=O [Analog 3, N-[2-(4-Amino-2-propyl-1H-imidazo[4,5-c]quinolin-1-yl)-1,1-dimethylethyl]methanesulfonamide] | – | – | – | 9780 pg/mL | Maximal Response (pg/mL) IFN (interferon (α) (IFN-α); [5]): 832 pg/mL; Maximal Response (pg/mL) TNF [1, 5]: 7245 pg/mL
13 | CCOCc1nc2c(N)nc3ccccc3c2n1CC(C)(C)N [Analog 111] | 656 | 0.12 | 0.37 | 11475 pg/mL | –
14 | CN(CCOCCn1c(CCO)nc2c(N)nc3ccccc3c21)S(C)(=O)=O [Example 133] | 8361 | 0.37 | >30 | * | –
15 | CCCc1nc2c(N)nc3cc(-c4cccnc4)ccc3c2n1CCCCNC(=O)C(C)C [Analog 38] | – | – | – | – | minimal effective concentration (interferon (α) (IFN-α); Table 10): 0.12 µM; Maximal Response (pg/mL) IFN (interferon (α) (IFN-α); [2]): 1610 pg/mL; minimal effective concentration ([1]; Table 10): 0.37 µM; Maximal Response (pg/mL) TNF [1, 2]: 960 pg/mL
16 | COCCc1nc2c(N)nc3cc(-c4ccccc4)ccc3c2n1CCCN1CCCC1=O [Analog 21] | – | – | – | – | minimal effective concentration (interferon (α) (IFN-α); Table 10): 0.12 µM; Maximal Response (pg/mL) IFN (interferon (α) (IFN-α); [2]): 1880 pg/mL; minimal effective concentration ([1]; Table 10): 1.11 µM; Maximal Response (pg/mL) TNF [1, 2]: 201 pg/mL
17 | CCCc1nc2c(N)nc3cc(-c4cccnc4)ccc3c2n1CCCCNC(=O)C1CCCC1 [Analog 36] | – | – | – | – | minimal effective concentration (interferon (α) (IFN-α); Table 10): 0.12 µM; Maximal Response (pg/mL) IFN (interferon (α) (IFN-α); [2]): 521 pg/mL; minimal effective concentration ([1]; Table 10): 0.37 µM; Maximal Response (pg/mL) TNF [1, 2]: 2222 pg/mL
18 | Nc1nc2cc(-c3cccnc3)ccc2c2c1nc(CO)n2CCCCNC(=O)NC1CCCC1 [Example 197] | – | – | – | – | Maximal Response (pg/mL) IFN (interferon (α) (IFN-α); [2]): 4373 pg/mL; Maximal Response (pg/mL) TNF [1, 2]: 600 pg/mL
19 | Cc1ccc(C)c(S(=O)(=O)NCCCCn2c(CCO)nc3c(N)nc4ccccc4c32)c1 [Example 36] | 3316 | 10 | >30 | * | –
20 | CC(C)(CNS(C)(=O)=O)Cn1c(CCO)nc2c(N)nc3ccccc3c21 [Example 131] | 8361 | 0.37 | >30 | * | –
21 | CCCc1nc2c(N)nc3cccnc3c2n1CC(C)(C)O [Analog 128, 1-(4-amino-2-propyl-1H-imidazo[4,5-c][1,5]naphthyridin-1-yl)-2-methylpropan-2-ol] | – | – | – | – | Maximal Response IFN (interferon (α) (IFN-α); Table 12): 2484 pg/mL; Maximal Response TNF [1, 3]: 5526 pg/mL
22 | COCCc1nc2c(N)nc3ccccc3c2n1CC(C)(C)NS(C)(=O)=O [Analog 5, N-{2-[4-Amino-2-(2-methoxyethyl)-1H-imidazo[4,5-c]quinolin-1-yl]-1,1-dimethylethyl}methanesulfonamide] | 1308 | – | – | 13908 pg/mL | Maximal Response (pg/mL) IFN (interferon (α) (IFN-α); [5]): 825 pg/mL; Maximal Response (pg/mL) TNF [1, 5]: 12518 pg/mL
23 | CC(C)(F)Cn1c(CCO)nc2c(N)nc3cccnc3c21 [Example 552, 2-[4-Amino-1-(2-fluoro-2-methylpropyl)-1H-imidazo[4,5-c][1,5]naphthyridin-2-yl]ethanol] | – | – | – | – | Maximal Response IFN (interferon (α) (IFN-α); Table 12): 1646 pg/mL; Maximal Response TNF [1, 3]: 84 pg/mL
24 | Cc1nc2c(N)nc3ccccc3c2n1CCNS(C)(=O)=O [Analog 68] | 1610 | 0.12 | 10 | 820 pg/mL | –
25 | Cc1nc2c(N)nc3cccnc3c2n1CC(C)(C)F [Analog 131, 1-(2-fluoro-2-methylpropyl)-2-methyl-1H-imidazo[4,5-c][1,5]naphthyridin-4-amine] | – | – | – | – | Maximal Response IFN (interferon (α) (IFN-α); Table 12): 2120 pg/mL; Maximal Response TNF [1, 3]: 1679 pg/mL
26 | CCOCc1nc2c(N)nc3cc(-c4cccnc4)ccc3c2n1CC(C)(C)O [Analog 10, 1-(4-amino-2-ethoxymethyl-7-pyridin-3-yl-1H-imidazo[4,5-c]quinolin-1-yl)-2-methylpropan-2-ol] | – | – | – | – | Maximal Response (pg/mL) IFN (interferon (α) (IFN-α); [6]): 840 pg/mL; Maximal Response (pg/mL) IFN (interferon (α) (IFN-α); [2]): 840 pg/mL; Maximal Response (pg/mL) TNF [1, 2]: 7867 pg/mL
27 | CCc1nc2c(N)nc3cc(-c4cccnc4)ccc3c2n1CC(C)(C)O [Analog 8, 1-(4-amino-2-ethyl-7-pyridin-3-yl-1H-imidazo[4,5-c]quinolin-1-yl)-2-methylpropan-2-ol] | – | – | – | – | Maximal Response (pg/mL) IFN (interferon (α) (IFN-α); [6]): 1118 pg/mL; Maximal Response (pg/mL) IFN (interferon (α) (IFN-α); [2]): 1652 pg/mL; Maximal Response (pg/mL) TNF ([1]; Table 9, * = below experimental background level of 40 pg/mL): 3234 pg/mL; Maximal Response (pg/mL) TNF [1, 2]: 3571 pg/mL
